{"source": "paper PMC5679075", "about": "(Nature, 2017)", "target": "T1, LepI (Aspergillus flavus, UniProt B8NJH3)", "T1 sequence (B8NJH3 1-387)": "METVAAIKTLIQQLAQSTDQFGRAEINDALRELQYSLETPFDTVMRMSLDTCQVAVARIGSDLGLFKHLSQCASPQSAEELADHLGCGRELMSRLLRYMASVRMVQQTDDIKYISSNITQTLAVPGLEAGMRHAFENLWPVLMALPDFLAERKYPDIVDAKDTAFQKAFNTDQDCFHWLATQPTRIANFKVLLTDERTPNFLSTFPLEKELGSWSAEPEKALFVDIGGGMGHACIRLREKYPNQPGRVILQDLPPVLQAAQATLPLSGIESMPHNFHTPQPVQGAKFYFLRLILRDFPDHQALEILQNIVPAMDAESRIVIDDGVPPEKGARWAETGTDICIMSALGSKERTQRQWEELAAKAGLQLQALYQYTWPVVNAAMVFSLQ", "assay": "HPLC time course, inhibition of retro-Claisen rearrangement", "assay_type": "biochemical", "conditions": "read-out: % inhibition at 250 μM", "data": [{"smiles": "Nc1ncnc2c1ncn2[C@@H]1O[C@H](CSCC[C@H](N)C(=O)O)[C@@H](O)[C@H]1O", "note": "[SAH]", "values": [{"measurement": "inhibition at 250 µM", "result": "> 90", "unit": "%"}]}]}
